Assay results as given in patent publication US20250346938A1, “ATP-DEPENDENT C-TERMINAL MODIFICATION OF POLYPEPTIDES” (Wisconsin Alumni Research Foundation, priority 2024, published 2025).

Key:
[1] = system: M ccB; test: MccB-catalyzed native chemical ligation of MccA-N7G with Mesna and Cys-Trp; assay type: biochemical, E. coli; conditions: both Mesna and Cys-Trp in the reaction, 4 hours
Method: MccA-N7G thioester exchange with N-terminal Cys peptide. C-terminal thioester was prepared in reactions containing 250 μM MccA-N7G, 5 μM MccB, 5 mM ATP, and 5 mM Mesna/TCEP in reaction buffer (25 mM Tris pH 8.0, 10 mM M gCl2). A fter incubating for 16 hours at room temperature, 20 mM Cys-Trp peptide was added to each reaction and incubated for an additional 4 hours. Reactions were quenched with the addition of an equivalent volume of 0.6% TFA.

[2] = system: E. coli M ccB; test: LC-TOF MS analysis of MccB-catalyzed AMPylation of MccA variants; assay type: biochemical; conditions: HPLC-MS assay
Method: LC-TOF MS analysis of M ccB reactions with synthetic peptide substrates. […] Reactions were incubated for 16 hours at room temperature and quenched with addition of an equivalent volume of 0.6% TFA. These reaction conditions were used for M ccBs from E. coli, H. pylori, L. johnsonii, and H. somni.
LC-TOF MS analysis of M ccB-catalyzed N-AM Pylation of M ccA positional scanning peptide library. MccA variants were synthesized individually in-house (according to Solid-phase peptide synthesis) or were purchased from Peptide2.0. […] Reactions were incubated for 16 hours at room temperature and quenched with addition of an equivalent volume of 0.6% TFA. […] Percent conversion was calculated using peak areas from substrate and product EICs. Raw data are available in the Dryad repository at DOI: 10.5061/dryad.c59zw3rkb.

[3] = system: E. coli M ccB; test: Enzyme-coupled pyrophosphate (PPi) release assay, E. coli MccB; assay type: biochemical
Source text: FIG. 31. Enzyme-coupled pyrophosphate assay for detection of M ccB-catalyzed pyrophosphate release. M ccB-catalyzes release of pyrophosphate, which is converted to phosphate by inorganic pyrophosphatase (PPiase). Purine nucleoside phosphorylase (PN Pase) uses phosphate as a substrate to convert 2-amino-6-mercapto-7-methylpurine ribonucleoside (M ESG) to ribose 1-phosphate and 2-amino-6-mercapto-7-methylpurine, which absorbs at 360 nm.
Purine nucleoside phosphorylase (PNP)/inorganic pyrophosphate (IP)-coupled kinetic assays. The kinetics of M ccB-catalyzed adenylation were characterized using an enzyme-coupled assay for detecting formation of pyrophosphate EnzCheck Pyrophosphate Assay Kit (Thermo Fisher Scientific) (FIG. 31). To screen M ccB for adenylation activity with C-terminal variants of MccA, 5 μM of the appropriate MccB variant was incubated with 0.25 mM of each M ccA variant in a reaction with 0.25 mM ATP, 5 mM M gCl2, 0.5 U/mL purine nucleoside phosphorylase (PNP), and 0.5 U/mL inorganic pyrophosphatase (IP). To screen E. coli, H. pylori, and L. johnsonii M ccB homologs for adenylation activity with MccA homologs, 5 μM of the appropriate MccB enzyme was incubated with 0.25 mM of each M ccA variant in a reaction with 0.25 mM ATP, 5 mM M gCI2, 0.5 U/mL purine nucleoside phosphorylase (PNP), and 0.5 U/mL inorganic pyrophosphatase (IP). Reactions containing HpM ccA-N7G and LjM ccA-N 7G peptides also contained 5 mM M esna and 5 mM TCEP. To collect steady-state kinetics data for individual peptide substrates, the peptide concentration was varied from 0-600 μM in a reaction with 5 μM MccB, 0.25 mM ATP, 5 mM MgCl2, 0.5 U/mL purine nucleoside phosphorylase (PNP), and 0.5 U/mL inorganic pyrophosphatase (IP). […] We therefore repeated measurements for the MccA-N7G peptide using an MccB concentration of […] and a substrate concentration range from 0-100 μM. Reactions were initiated with the addition of M ccB and absorbance at 360 nm was monitored using a Tecan Infinite M 200 plate reader. Initial rates of pyrophosphate production were calculated based on the initial rate of absorbance change and the resulting purine analog extinction coefficient (11,000 M-1 cm-1). Reactions were carried out in triplicate and data analysis was performed using GraphPad Prism 10.

[4] = system: LjM ccB; test: C-terminal thioesterification of MccA-N7G peptides by L. johnsonii MccB (LC-MS); assay type: biochemical; conditions: LjMccB, ATP, Mesna, within 16 h
Chain of LjM ccB (as listed by the source): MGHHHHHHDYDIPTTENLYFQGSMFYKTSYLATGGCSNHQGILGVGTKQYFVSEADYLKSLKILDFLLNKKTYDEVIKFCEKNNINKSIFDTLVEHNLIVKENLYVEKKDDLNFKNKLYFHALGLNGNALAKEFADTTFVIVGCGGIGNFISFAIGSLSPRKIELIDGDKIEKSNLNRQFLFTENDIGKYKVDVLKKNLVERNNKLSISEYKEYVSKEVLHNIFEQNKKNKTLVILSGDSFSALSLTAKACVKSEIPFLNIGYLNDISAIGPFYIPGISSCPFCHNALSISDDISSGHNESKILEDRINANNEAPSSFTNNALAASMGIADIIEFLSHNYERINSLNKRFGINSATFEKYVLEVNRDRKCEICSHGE

[5] = system: M ccB; test: MccB-catalyzed C-terminal thioesterification / Cys ligation of TeCH-tag fusion proteins (intact protein LC-MS); assay type: biochemical, E. coli
Method: M ccB-mediated ligation of GFP-MccA-N7G protein substrates. GFP-M ccA-N7G variant (50 μM) was incubated with 5 μM MccB, 5 mM ATP, and the appropriate concentration of cysteine or Mesna/TCEP in reaction buffer (25 mM Tris pH 8.0, 10 mM M gCl2). Reactions were incubated at room temperature for the indicated times. For labeling time course experiments, reactions were quenched with the addition of an equivalent volume of 0.6% TFA.

[6] = system: M ccB; test: One-pot expressed protein ligation of GFP-TeCH with N-terminal Cys peptide CGAGS-azidoAla; assay type: biochemical, E. coli; conditions: MccB, ATP, Mesna
[7] = biological target: T1, Ubc9 (Homo sapiens, UniProt P63279); test: Ubc9-catalyzed lysine acylation (LACE) of GFP-LACE-tag with MccB-generated thioesters; assay type: biochemical
T1 construct: Ubc9; Calc: 20,632 Da (M et loss); Observed: 20,632 Da, 20,810 Da (N-gluconylation); made in house; host or cells: E. coli BL21 (DE3)
T1 sequence (P63279 with tags, fused parts or gaps): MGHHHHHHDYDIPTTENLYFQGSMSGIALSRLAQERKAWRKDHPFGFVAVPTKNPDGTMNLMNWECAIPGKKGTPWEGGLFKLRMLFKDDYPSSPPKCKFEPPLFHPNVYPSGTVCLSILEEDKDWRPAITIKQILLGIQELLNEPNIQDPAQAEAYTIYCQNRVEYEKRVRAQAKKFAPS
Method: For larger scale synthesis of MLGLRGG-Mes (HsLACE3-M es) (SEQ ID NO: 88), identical reaction conditions and reagent concentrations were used in a volume of […]. Reactions were quenched by addition of trifluoroacetic acid (TFA) to 1% final concentration and were desalted on SOLA HRP C18 solid-phase extraction columns (10 mg format, Thermo Fisher Scientific). Columns were conditioned with 100% acetonitrile ([…]) and equilibrated with 0.1% TFA (2× 1 mL). The acidified sample was then loaded onto the column. The column was washed with 0.1% TFA (2×1 mL) and eluted with 80% acetonitrile/20% water ([…]). The eluted peptide thioester was dried in a vacuum concentrator (SpeedV ac SPD 130DLX, Thermo Fisher Scientific) and dissolved in water. The recovered peptide was quantified using the Pierce Quantitative Fluorometric Peptide A ssay Kit (Thermo Fisher Scientific). Typical recovery from desalting was 50%.
Lysine acylation using conjugating enzymes (LACE) of GFP-LACE-tag using M ccB-generated thioesters. GFP-LACE-tag ([…]), U bc9 ([…]), MLGLRGG-Mes (SEQ ID NO: 88) or other C-terminal thioesters as indicated in the text ([…]) were incubated in reaction buffer (100 mM HEPES, pH 8.0, 50 mM K CI) at 30° C. for 16 h. For pH optimization, reaction buffer was either 100 mM HEPES, pH 7.6, 50 mM KCl or 100 mM HEPES, pH 8.0, 50 mM KCl. […]

[8] = biological target: T2, MccA-N7G (E. coli TeCH-tag peptide MRTGNAG)
T2 chain: MRTGNAG

MRTGNAG [MccA-N7G]
conversion to MccA-N7G-CW, yield [1]: 82% | formation of stably AMPylated product [2]: no stably A M Pylated product was observed | stimulation of PPi formation ([3]; MccA C-terminal variant as substrate for MccB): substantial stimulation | Km ([3]; initial fitting, 5 μM MccB, peptide 0-600 μM, pyrophosphate release, read-out: apparent KM): 8.9 µM

MHRIM KG (MHRIMKG) [LjM ccA-N7G]
conversion to C-terminal thioester, yield [4]: > 97%

GFP-TeCH-tag: Cys-free GFP fused to MccA-N7G TeCH-tag (SEQ ID NO: 73)
conversion to the Mesna thioester ([5]; 5 mM Mesna, 5 mM ATP, 30 min): near-quantitative | Cys ligation yield ([5]; ATP (5 mM), Cys (5 mM), 1 h): 99% | time to complete conversion to thioester ([5]; ATP (5 mM), Mesna (5 mM)): 1 h | modification with azide-bearing peptide CGAGS-3-azido-Ala [6]: quantitatively modified

MLGLRGG (listed as Histophilus somni) [HsLACE3]
modification of the LACE-tagged protein ([7]; HsMccB-generated thioester after C18 spin column thiol removal): 94% | conversion to modified GFP-LACE ([7]; one-pot and telescoped HsMccB/Ubc9 reactions): 1-15%

B1: E. coli MccB (protein)
chain: MGHHHHHHDYDIPTTENLYFQGSMDYILGRYVKIARYGSGGLVGGGGKEQYVEDLALWENIIKTAYCFITPSSYTAALETVNIPEKDFSNCFRFLKENFFIIPSEYNNSTENNRYSRNFLHYQSYGANPVLVQDKLKDAKVVILGCGGIGNHVSVILATSGIGEIILIDNDQIENTNLTRQVLFSENDVGKNKTEVIKRELLKRNSEISVSEIALNINDYTDLHKVPEADIWVVSADHPFNLINWVNKYCVRANQPYINAGYVNDIAVFGPLYVPGKTGCYECQKVVADLYGSEKENIDHKIKLINSRFKPATFAPVNNVAAALCAADVIKFIGKYSEPLSLNKRIGIWSDEIKIHSQNMGRSPVCSVCGNRM
apparent KM, enzyme-coupled pyrophosphate release assay (steady-state kinetics) [8]: 8.9 ± 0.9 µM
